Laboratory results reported in patent US20240285501A1, “HAIR GROWTH AGENT” (ADJUVANT HOLDINGS CO., LTD., priority 2021, published 2024).

Tests used:
[1] = tested on: VEGF gene expression in human dermal papilla cells; assay: Evaluation of human dermal papilla cell VEGF gene expression (real-time PCR); assay type: cell-based; details: 72 hours, relative to negative control group, GAPDH internal standard, FIG. 1
Description: The VEGF gene is expressed in dermal papilla cells, and contributes to expression of such effects as increase in hair shaft diameter and improving maximum hair shaft length and improving hair shaft elongation rate and hair shaft growth promotion at head hair, beard, eyebrows, and/or eyelashes. Human dermal papilla cells were therefore used, and evaluation was carried out with respect to increase in VEGF gene expression for the respective components.
Human dermal papilla cells (Catalog No. CA60205a; derived from person; Toyobo Co., Ltd. (Japan)) were purchased, testing and evaluation being carried out with maintenance and culture of cells being performed as described in the protocol.
As drugs for testing, drug solutions of the following respective concentrations (final concentrations) were prepared and used. • Comparative Example 1: 100 μM adenosine • Working Example 1: 0.3125 μM phytosphingosine • Working Example 2: 1.25 μM phytosphingosine • Working Example 3: Liquid mixture of 100 μM adenosine and 1.25 μM phytosphingosine
A 24-well plate was seeded with human dermal papilla cells so as to obtain 6×10^3 thereof per well. […] The GAPDH gene was used as an internal standard, the amount of VEGF gene expression being calculated relative to the negative control group. […]
300 μL of lysis buffer RL was added thereto per well, and the cells were lysed by pipetting. […] Concentration of the recovered RNA was measured using a NanoDrop Lite (Catalog No. ND-LITE; Thermo Fisher Scientific K.K.), and this was stored at −80° C. until the following cDNA creation procedure.
A FastGene scriptase II cDNA synthesis 5× Ready Mix (Catalog No. NE-LS64; Nippon Genetics Co., Ltd. (Japan)) was used to synthesize cDNA. Dilution with RNase Free Water was carried out so as to cause concentration of total RNA produced in a new tube to be […], 4 μL of FastGene scriptase II cDNA synthesis 5× Ready Mix was added to 16 μL of this sample solution, and this was agitated by vortexing. […]

[2] = tested on: vascular endothelial growth factor (VEGF) expression in human dermal papilla cells; details: cited from earlier work

Compound | change in amount of expression of the VEGF gene [1] | expression of vascular endothelial growth factor (VEGF) [2]
CCCCCCCCCCCCCC[C@@H](O)[C@@H](O)[C@@H](N)CO [Working Example 1, phytosphingosine] | increase in dosage-dependent fashion in the amount of expression of the VEGF gene as compared with the control group | –
CCCCCCCCCCCCCC[C@@H](O)[C@@H](O)[C@@H](N)CO [Working Example 2, phytosphingosine] | increase in dosage-dependent fashion in the amount of expression of the VEGF gene as compared with the control group | –
Nc1ncnc2c1ncn2[C@@H]1O[C@H](CO)[C@@H](O)[C@H]1O [adenosine] | – | promotes expression of vascular endothelial growth factor (VEGF)
CCCCCCCCCCCCCC[C@@H](O)[C@@H](O)[C@@H](N)CO [phytosphingosine] | significantly greater than that which was produced as a result of action of adenosine | –
